Assay type in all cases: cell-based
The subject of experiment [1] is planktonic cells of Staphylococcus epidermidis. The experiment is described as follows: Checkerboard combination assay, planktonic cells. As to conditions: planktonic S. epidermidis, mean MIC; for MIC alone, ATB: antibiotic alone; for MIC alone, NPs: natural product alone, in µg/mL. The procedure:
The checkerboard assay, as previously described, was used for the determination of the fractional inhibitory concentration index (FICI). Briefly, 50 µL of MHB was distributed into each well of a 96-well microplate. ATBs were serially diluted along the abscissa, and NPs were serially diluted along the ordinate. Then, 100 µL of bacterial inoculum (1.5 × 10^6 CFU/mL) was added to each well and incubated at 37°C for 24 h. The final concentration ranged from 0.125 to 128 µg/mL for ATBs and 4–512 µg/mL for NPs. After incubation, a volume of 40 µL of INT solution (0.2 mg/mL) was added to each well, and the microplate was incubated at 37°C for 30 min. The wells containing bacterial inoculum and MHB were used as a positive control, while wells containing only MHB + 1% glucose were used as a negative control and used as a blank. Viable bacteria cells change the yellow dye of INT to a pink color. The MICs were considered to be the lowest NP concentrations that prevented the color change medium. Subsequently, the FICI was calculated according to the formula FICI = (MIC of the ATBs in combination/MIC of the ATBs alone) + (MIC of a natural substance in combination/MIC of the natural substance alone). FICI values were interpreted as follows: synergy when FICI ≤ 0.5; additive when 0.5 < FICI ≤ 1; indifference when 1 < FICI ≤ 4; and antagonism when FICI > 4.

Experiment [2] has as its system Staphylococcus saprophyticus biofilm. The experiment is described as follows: Checkerboard combination assay, biofilm eradication. In outline:
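Biofilms preformed for 24 h were washed and exposed to antibiotics (0.0625–128 µg/mL) combined with NPs (4–512 µg/mL) for 24 h at 37°C in checkerboard format. Viability was read by MTT reduction to set MBEC, and FICI was calculated for the combination.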

A further experiment relates to Raw 264.7 macrophages. The experiment is described as follows: Cytotoxicity, MTT assay. As to conditions: Raw 264.7, MTT. The procedure:
(§1) Two cell lines, including Raw 264.7 macrophages and the urinary epithelial cell line UROtsa obtained from the American Type Culture Collection (Rockville, MD, USA), were used. They were cultured in Dulbecco's modified Eagle's medium (DMEM), which was supplemented with 10% fetal bovine serum (FBS) and 1% penicillin, streptomycin, and fungizone (PSF). They were then grown at 37°C in a humidified environment containing 5% CO2.
(§2) The cytotoxicity of the selected synergistic combinations, as well as the individual constituents of combinations, against the abovementioned cell lines was performed by the MTT assay as previously described. Briefly, cells from each line were harvested in the logarithmic phase using trypsin (0.05% trypsin, 0.02% EDTA in PBS). Cell suspension was diluted with an appropriate growth medium to obtain a cell density of 10^4 cells/well. A 100 µL aliquot of each suspension was seeded into 96-well cell culture plates and incubated at 37°C in an atmosphere of 5% CO2 and 95% relative humidity. After 24 h of incubation, 100 µL of samples (ATBs and NPs) at concentrations varying from 0.01, 0.1, 1, 10, 100, and 1000, as well as the synergistic combinations (C1 to C5), was added to the wells containing the cells. Doxorubicin was used as a positive control. Appropriate controls with an equivalent concentration of DMSO were also included. Plates were incubated for 48 h, then the medium in each well was aspirated, and MTT solution (2 mg/mL in PBS) was diluted 1:10 with fresh medium and added to each well, and the plates were further incubated at 37°C for 4 h. Absorbance was measured on a BioTek microplate reader at 570 nm. The percentage of cell viability was calculated by comparing treated and untreated cells using the equation [39]:(3) cell viability %=ODtest/ODcontrol×100.
(§3) Then, the IC50 values of the samples having shown at least 50% inhibition were calculated by plotting the percentage of inhibition against the concentrations.
For orientation: Formazan colour is commonly taken as a measure of viable cells.

Experiment [3] relates to UROtsa urinary epithelial cells. The experiment is described as follows: Cytotoxicity, MTT assay. The note with it: 48 h. The protocol:
as §1, §2, §3

Where [4] appears, read: S. saprophyticus biofilm eradication, antibiotic alone, mean MBEC.
Where [5] appears, read: Mus musculus, RAW264.7, 48 h, read-out: IC50.
Setting [6] is: Epithelial cell, read-out: IC50.
The mark [7] stands for this setting: S. saprophyticus, biofilm eradication, mean.

Here are results for 13 compounds from publication PMC12339163, “Combining Plant Bioactives With Antibiotics for Enhanced Antibiofilm Activity Against Uropathogenic Staphylococcus spp. and Cytotoxicity Evaluation” (Advances in Pharmacological and Pharmaceutical Sciences, 2025).

“And” between values parts separate entries of the source, which are not always exact repeats. Equal values may be shown once. Read-outs that look alike come from different tables or passages of the source.

Regarding `CC1(C)S[C@@H]2[C@H](NC(=O)[C@H](N)c3ccc(O)cc3)C(=O)N2[C@H]1C(=O)O` [Amoxicillin, amoxicillin], the MIC alone, ATB in experiment [1] was found to be 26.8 µg/mL. Also, the “MBEC Alone ATB” value in experiment [2] (setting [4]) turned out to be 9.33 µg/mL. Further, the IC50 (commonly the concentration that inhibits the measured activity by half) was greater than 1000 µg/mL in the experiment with Raw 264.7 macrophages (setting [5]), “— (IC50 > 1000 µg/mL)” in the experiment with Raw 264.7 macrophages (48 h), “— (IC50 > 1000 µg/mL)” in experiment [3] and greater than 1000 µg/mL in experiment [3] (setting [6]).
With `O=C(O)c1cc(O)c(O)c(O)c1` [Gallic acid, 3,4,5-trihydroxybenzoic acid], the “MIC alone, NPs” value in experiment [1] (listed as Gal) was 426.66 and 277.33.
Regarding `C=CC1=C(C(=O)O)N2C(=O)[C@@H](NC(=O)/C(=N\OCC(=O)O)c3csc(N)n3)[C@H]2SC1` [Cefixime, cefixime], the MIC alone, ATB in experiment [1] worked out at 107 µg/mL. In addition, the “MBEC Alone ATB” value in experiment [2] (setting [4]) and in experiment [2] (setting [7]) was 48 µg/mL each time. Besides, the figures for the IC50 (with Raw 264.7 macrophages (48 h); in experiment [3]; in experiment [3] (setting [6])) were 473.83 µg/mL, “— (IC50 > 1000 µg/mL)” and greater than 1000 µg/mL, respectively.
As for `CC1=CC(=O)c2c(O)cccc2C1=O` [Plumbagin, plumbagin], in experiment [2] (setting [7]), the “MBEC Alone NPs” value is 10.66 µg/mL.
`NC[C@H]1O[C@H](O[C@H]2[C@H](O)[C@@H](O[C@H]3O[C@H](CO)[C@@H](O)[C@H](N)[C@H]3O)[C@H](N)C[C@@H]2N)[C@H](O)[C@@H](O)[C@@H]1O` [Kanamycin, kanamycin]: the MIC alone, ATB in experiment [1] came out at 7.33 µg/mL. For the same compound, the “MBEC Alone ATB” value in experiment [2] (setting [4]) worked out at 10.66 µg/mL. Also, the IC50 result (in the experiment with Raw 264.7 macrophages (48 h); in experiment [3]) was “— (IC50 > 1000 µg/mL)” in each case.
For the compound `COc1cc(/C=C/C(=O)CC(=O)/C=C/c2ccc(O)c(OC)c2)ccc1O` [Curcumin, curcumin], the “MIC alone, NPs” value in experiment [1] is 384. Further, in experiment [2] (S. saprophyticus biofilm eradication, natural product alone, mean MBEC, listed as Cur), the “MBEC Alone NPs” value was 170.66 µg/mL and 213.33 µg/mL. For the same compound, the IC50 was 94.4 µg/mL in the experiment with Raw 264.7 macrophages (setting [5]) and 51.9 µg/mL in experiment [3] (setting [6]).
Consider `COc1ccc2cc3[n+](cc2c1OC)CCc1cc2c(cc1-3)OCO2` [Berberine, berberine], for which the “MBEC Alone NPs” value is 128 µg/mL and 85.33 µg/mL and 106.66 µg/mL and 170.66 µg/mL in experiment [2] (S. saprophyticus biofilm eradication, natural product alone, mean MBEC, listed as Ber); 128 µg/mL in experiment [2] (setting [7]).
Consider `CC[C@H]1OC(=O)[C@H](C)[C@@H](O[C@H]2C[C@@](C)(OC)[C@@H](O)[C@H](C)O2)[C@H](C)[C@@H](O[C@@H]2O[C@H](C)C[C@H](N(C)C)[C@H]2O)[C@](C)(O)C[C@@H](C)C(=O)[C@H](C)[C@@H](O)[C@]1(C)O` [Erythromycin, erythromycin], for which the MIC alone, ATB in experiment [1] amounted to 32.7 µg/mL. Moreover, the “MBEC Alone ATB” value in experiment [2] (setting [4]) and in experiment [2] (setting [7]) was 29.33 µg/mL throughout.
For the compound `O=c1c(O)c(-c2ccc(O)c(O)c2)oc2cc(O)cc(O)c12` [Quercetin, quercetin], the “MIC alone, NPs” value in experiment [1] (listed as Que) is 512 and 362.66.
On to `Cc1nnc(SCC2=C(C(=O)O)N3C(=O)[C@@H](NC(=O)Cn4cnnn4)[C@H]3SC2)s1` [Cefazolin, cefazolin], for which the MIC alone, ATB in experiment [1] worked out at 42.7 µg/mL. Moreover, the results for the “MBEC Alone ATB” value in experiment [2] (setting [4]) and in experiment [2] (setting [7]) were 10.66 µg/mL and 48 µg/mL, respectively. In addition, the IC50 in the experiment with Raw 264.7 macrophages (setting [5]) is greater than 1000 µg/mL; in the experiment on Raw 264.7 macrophages (48 h) it was 504.26 µg/mL; in experiment [3], “— (IC50 > 1000 µg/mL)”; in experiment [3] (setting [6]) it was greater than 1000 µg/mL.
Regarding `Cc1ccc(C(C)C)c(O)c1` [Thymol, thymol], the “MIC alone, NPs” value in experiment [1] is recorded as 426.66. The “MBEC Alone NPs” value in experiment [2] (setting [7]) worked out at 128 µg/mL. In addition, the IC50 is 442 µg/mL with Raw 264.7 macrophages (setting [5]) and greater than 1000 µg/mL in experiment [3] (setting [6]).
Take `C[C@H]1c2cccc(O)c2C(=O)C2=C(O)[C@]3(O)C(=O)C(C(N)=O)=C(O)[C@@H](N(C)C)[C@@H]3[C@@H](O)[C@@H]21` [Doxycycline, doxycycline]: in experiment [1], the MIC alone, ATB came to 7 µg/mL. For the same compound, the “MBEC Alone ATB” value in experiment [2] (setting [4]) worked out at 9.33 µg/mL.
`NCC[C@H](O)C(=O)N[C@@H]1C[C@H](N)[C@@H](O[C@H]2O[C@H](CN)[C@@H](O)[C@H](O)[C@H]2O)[C@H](O)[C@H]1O[C@H]1O[C@H](CO)[C@@H](O)[C@H](N)[C@H]1O` [Amikacin, amikacin]: the MIC alone, ATB in experiment [1] came out at 1.16 µg/mL. Besides, the “MBEC Alone ATB” value in experiment [2] (setting [4]) stood at 13.33 µg/mL. The IC50 in the experiment with Raw 264.7 macrophages (setting [5]) is greater than 1000 µg/mL; in the experiment on Raw 264.7 macrophages (48 h), “— (IC50 > 1000 µg/mL)”; in experiment [3], “— (IC50 > 1000 µg/mL)”; in experiment [3] (setting [6]) it was greater than 1000 µg/mL.
